One assay addresses T1, FLT3-D835Y (Homo sapiens, UniProt P36888, D835Y).
T1 construct: purchased Invitrogen PV3967
T1 sequence (P36888 27-993 D835Y): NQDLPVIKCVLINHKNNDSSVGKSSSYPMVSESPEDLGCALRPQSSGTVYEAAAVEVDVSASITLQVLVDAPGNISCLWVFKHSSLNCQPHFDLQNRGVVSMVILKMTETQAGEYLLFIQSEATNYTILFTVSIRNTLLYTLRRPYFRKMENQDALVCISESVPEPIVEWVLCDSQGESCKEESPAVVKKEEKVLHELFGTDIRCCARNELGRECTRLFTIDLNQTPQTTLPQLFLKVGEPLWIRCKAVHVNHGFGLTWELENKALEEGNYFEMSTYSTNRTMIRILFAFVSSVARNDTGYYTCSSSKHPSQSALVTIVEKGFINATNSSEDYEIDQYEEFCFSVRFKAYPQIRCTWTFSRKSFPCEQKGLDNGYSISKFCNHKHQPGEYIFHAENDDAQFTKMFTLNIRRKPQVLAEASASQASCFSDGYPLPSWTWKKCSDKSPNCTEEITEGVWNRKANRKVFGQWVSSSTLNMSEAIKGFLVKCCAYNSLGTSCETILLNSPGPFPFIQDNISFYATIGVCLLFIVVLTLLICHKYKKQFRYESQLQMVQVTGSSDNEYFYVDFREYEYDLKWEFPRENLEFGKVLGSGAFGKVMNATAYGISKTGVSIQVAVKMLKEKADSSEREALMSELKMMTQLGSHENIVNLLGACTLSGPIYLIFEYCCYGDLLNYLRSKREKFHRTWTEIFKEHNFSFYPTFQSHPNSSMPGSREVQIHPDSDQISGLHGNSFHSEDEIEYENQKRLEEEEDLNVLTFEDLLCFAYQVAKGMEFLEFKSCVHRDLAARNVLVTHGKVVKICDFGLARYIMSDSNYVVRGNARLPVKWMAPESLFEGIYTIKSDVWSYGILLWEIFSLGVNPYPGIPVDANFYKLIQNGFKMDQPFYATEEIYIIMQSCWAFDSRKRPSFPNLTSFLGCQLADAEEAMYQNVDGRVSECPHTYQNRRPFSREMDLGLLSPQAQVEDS
As to the kind of experiment: FLT3-D835Y biochemical kinase assay (AlphaScreen). The text has this:
(§1) In order to determine the effect of compounds on FLT3 catalytic activity, kinase assays using recombinant enzymes and AlphaScreen® technology have been established. When the kinases are catalytically active, they phosphorylate a biotinylated peptide substrate on tyrosine residues. Using AlphaScreen® technology, the ability of the compounds to affect the catalytic activity of the kinases can be measured quantitatively. The peptide substrate is immobilized by the AlphaScreen® Streptavidin Donor beads and, upon phosphorylation by a tyrosine kinase, can bind to AlphaScreen® Anti-Phosphotyrosine (PY20) Acceptor beads. Upon excitation of these beads with laser light at 680 nm, singlet oxygen is produced. This singlet oxygen is rapidly quenched, unless the AlphaScreen® Anti-Phosphotyrosine (PY20) Acceptor beads are in close proximity, in which case a proximity signal can be measured at 580 nm. In the presence of catalytic activity, there is a very strong proximity signal. Selective kinase inhibitors affect a decrease in this proximity signal through a decrease in tyrosine phosphorylation of the peptide substrate.
(§2) Substrate • Poly (Glu4-Tyr) Peptide, biotin conjugate [Biotin-GG(EEEEY)10EE (SEQ ID NO: 4)] • UBI/Millipore #12-440 • Final concentration=30 nM
(§3) Adenosine Triphosphate (ATP) • Sigma #A-3377 • Final concentration for IC50 determination=10 μM (FLT3-D835Y) or 100 μM (FLT3 or FLT3-ITD) • Detection Reagent • AlphaScreen® Phosphotyrosine (PY20) Assay Kit • Perkin-Elmer #6760601M • Final concentration=10 μg/mL
(§4) Centrifuge 1 minute, shake to mix, and incubate as follows:
(§5) • Mix Streptavidin Donor beads at 6× final concentration in Stop/Detection buffer. • Add 5 μL Streptavidin Donor beads to the reaction plate. Centrifuge 1 minute, shake to mix, and incubate at room temperature for 20 minutes. • Mix Anti-Phosphotyrosine (PY20) Acceptor beads at 6× final concentration in Stop/Detection buffer. • Add 5 μL Anti-Phosphotyrosine (PY20) beads to the reaction plate. • Centrifuge 1 minute, shake to mix, and incubate at room temperature for 60 minutes. • Read plate on Wallac EnVision™ 2103 Multilabel Reader. In Vivo Model System Testing
On the technique in general: Bead proximity is the source of the signal in Alpha formats.

The target of a further assay is T2, FLT3-ITD (Homo sapiens, UniProt P36888).
T2 construct: FLT3-ITD; Invitrogen #PV6190
T2 sequence (P36888 1-993): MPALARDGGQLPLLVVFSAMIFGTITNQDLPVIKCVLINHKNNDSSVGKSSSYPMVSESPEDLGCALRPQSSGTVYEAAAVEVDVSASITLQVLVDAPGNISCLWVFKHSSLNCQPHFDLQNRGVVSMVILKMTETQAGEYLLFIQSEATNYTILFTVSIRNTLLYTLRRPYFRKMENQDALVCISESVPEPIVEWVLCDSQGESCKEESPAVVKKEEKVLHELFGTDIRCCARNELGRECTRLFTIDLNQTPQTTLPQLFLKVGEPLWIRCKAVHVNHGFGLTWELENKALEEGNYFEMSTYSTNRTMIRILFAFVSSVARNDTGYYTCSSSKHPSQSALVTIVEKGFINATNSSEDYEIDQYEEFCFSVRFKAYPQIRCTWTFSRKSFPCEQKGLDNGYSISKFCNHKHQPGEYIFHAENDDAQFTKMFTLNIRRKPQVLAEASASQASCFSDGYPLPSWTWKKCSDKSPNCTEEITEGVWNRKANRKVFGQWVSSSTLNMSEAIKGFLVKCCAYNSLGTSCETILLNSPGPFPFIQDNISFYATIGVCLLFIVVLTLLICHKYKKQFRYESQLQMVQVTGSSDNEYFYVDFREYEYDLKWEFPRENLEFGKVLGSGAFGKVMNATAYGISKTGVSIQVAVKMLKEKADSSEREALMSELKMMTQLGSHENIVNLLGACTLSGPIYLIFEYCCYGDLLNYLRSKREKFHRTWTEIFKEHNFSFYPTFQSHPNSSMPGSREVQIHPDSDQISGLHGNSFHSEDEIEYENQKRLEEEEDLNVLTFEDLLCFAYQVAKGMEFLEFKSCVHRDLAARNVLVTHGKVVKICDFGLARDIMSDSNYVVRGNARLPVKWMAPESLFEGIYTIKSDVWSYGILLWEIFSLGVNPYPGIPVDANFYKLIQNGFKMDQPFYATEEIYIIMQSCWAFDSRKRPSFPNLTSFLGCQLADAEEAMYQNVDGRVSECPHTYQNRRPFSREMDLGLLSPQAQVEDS
As to the kind of experiment: FLT3-ITD biochemical kinase assay (AlphaScreen).
Excerpt: as §1, §2, §3, §4, §5

18 compounds from patent publication US10160755B2 (Plexxikon Inc., priority 2015, dated 2018) can be followed below.

For orientation: IC50 means the midpoint of a concentration-inhibition curve. A higher IC50 goes with lower potency. On to `Cn1cnc2ccc(-c3c[nH]c4ncc(C#Cc5ccccc5)cc34)cc21` [P-139, 1-methyl-6-[5-(2-phenylethynyl)-1H-pyrrolo[2,3-b]pyridin-3-yl]benzimidazole], for which the IC50 on FLT3-D835Y and at FLT3-ITD was 0.0001 to 1 µM throughout.

Regarding `CC(C)S(=O)(=O)Nc1cccc(-c2cnc3[nH]cc(-c4ccc5ncn(C)c5c4)c3n2)c1` [P-152, N-[3-[7-(3-methylbenzimidazol-5-yl)-5H-pyrrolo[2,3-b]pyrazin-2-yl]phenyl]propane-2-sulfonamide], the IC50 against FLT3-D835Y and at FLT3-ITD was 0.0001 to 1 µM each time.

Turning to `CC(C)(C)n1cnc2ccc(-c3c[nH]c4ncc(-c5cccc(C#N)c5)cc34)cc21` [P-199, 3-[3-(3-tert-butylbenzimidazol-5-yl)-1H-pyrrolo[2,3-b]pyridin-5-yl]benzonitrile], the IC50 against FLT3-D835Y and on FLT3-ITD was 0.0001 to 1 µM each time.

Take `CC(C)N1CCOc2ccc(-c3c[nH]c4ncc(C5=CCN(C(=O)C6CC6)C5)nc34)cc21` [P-189, cyclopropyl-[3-[7-(4-isopropyl-2,3-dihydro-1,4-benzoxazin-6-yl)-5H-pyrrolo[2,3-b]pyrazin-2-yl]-2,5-dihydropyrrol-1-yl]methanone]: the 50% inhibitory concentration (IC50) against FLT3-D835Y and on FLT3-ITD was 0.0001 to 1 µM throughout.

Consider `COc1cnc2[nH]cc(-c3ccc4ncn(Cc5ccc(Cl)cc5)c4c3)c2c1` [P-111, 1-[(4-chlorophenyl)methyl]-6-(5-methoxy-1H-pyrrolo[2,3-b]pyridin-3-yl)benzimidazole], for which the IC50 on FLT3-D835Y and against FLT3-ITD was 0.0001 to 1 µM in each case.

For `c1cc(-c2cnc3[nH]cc(-c4ccc5ncsc5c4)c3n2)cc(N2CCOCC2)c1` [P-163, 4-[3-[7-(1,3-benzothiazol-6-yl)-5H-pyrrolo[2,3-b]pyrazin-2-yl]phenyl]morpholine], the IC50 at FLT3-D835Y and against FLT3-ITD was 0.0001 to 1 µM each time.

Turning to `COc1cc(-c2cnc3[nH]cc(-c4ccc5ncn(C(C)(C)C)c5c4)c3c2)cc(OC)n1` [P-196, 1-tert-butyl-6-[5-(2,6-dimethoxy-4-pyridyl)-1H-pyrrolo[2,3-b]pyridin-3-yl]benzimidazole], the 50% inhibitory concentration (IC50) against FLT3-D835Y and against FLT3-ITD was 0.0001 to 1 µM in each case.

As for `CN1CCN(c2ncc(-c3cnc4[nH]cc(-c5ccc6ncn(C(C)(C)C)c6c5)c4n3)cn2)CC1` [P-349, 7-(3-tert-butylbenzimidazol-5-yl)-2-[2-(4-methylpiperazin-1-yl)pyrimidin-5-yl]-5H-pyrrolo[2,3-b]pyrazine], the IC50 against FLT3-D835Y and at FLT3-ITD was 0.0001 to 1 µM each time.

Consider `COc1cc(-c2cnc3[nH]cc(-c4ccc5ncn(C)c5c4)c3n2)ccc1Cl` [P-149, 2-(4-chloro-3-methoxy-phenyl)-7-(3-methylbenzimidazol-5-yl)-5H-pyrrolo[2,3-b]pyrazine], for which the IC50 against FLT3-D835Y and at FLT3-ITD was 0.0001 to 1 µM throughout.

As to `Cc1cc(-c2cnc3[nH]cc(-c4ccc5ncn(C(C)(C)C)c5c4)c3n2)cnc1C#N` [P-355, 5-[7-(3-tert-butylbenzimidazol-5-yl)-5H-pyrrolo[2,3-b]pyrazin-2-yl]-3-methyl-pyridine-2-carbonitrile], the IC50 against FLT3-D835Y and against FLT3-ITD was 0.0001 to 1 µM throughout.

Regarding `Cn1cnc2ccc(-c3c[nH]c4ncc(-c5cccc(CC(=O)O)c5)cc34)cc21` [P-185, 2-[3-[3-(3-methylbenzimidazol-5-yl)-1H-pyrrolo[2,3-b]pyridin-5-yl]phenyl]acetic acid], the IC50 against FLT3-D835Y and at FLT3-ITD was 0.0001 to 1 µM each time.

Consider `CC(C)S(=O)(=O)Nc1cccc(-c2cnc3[nH]cc(-c4ccc5ncn(C(C)(C)C)c5c4)c3c2)c1` [P-214, N-[3-[3-(3-tert-butylbenzimidazol-5-yl)-1H-pyrrolo[2,3-b]pyridin-5-yl]phenyl]propane-2-sulfonamide], for which the IC50 against FLT3-D835Y and on FLT3-ITD was 0.0001 to 1 µM throughout.

`COc1cc(-c2cnc3[nH]cc(-c4ccc5ncn(C6CCCNC6)c5c4)c3c2)ccn1` (stereo not drawn) [P-138, 5-(2-methoxy-4-pyridyl)-3-[3-(3-piperidyl)benzimidazol-5-yl]-1H-pyrrolo[2,3-b]pyridine]: the 50% inhibitory concentration (IC50) against FLT3-D835Y and at FLT3-ITD was 0.0001 to 1 µM each time.

Take `Cn1cnc2ccc(-c3c[nH]c4ncc(-c5cnn(CC(F)(F)F)c5)nc34)cc21` [P-176, 7-(3-methylbenzimidazol-5-yl)-2-[1-(2,2,2-trifluoroethyl)pyrazol-4-yl]-5H-pyrrolo[2,3-b]pyrazine]: the IC50 at FLT3-D835Y and against FLT3-ITD was 0.0001 to 1 µM in each case.

For the compound `CC(C)(C)n1cnc2ccc(-c3c[nH]c4ncc(-c5ccnc(C6CC6)c5)nc34)cc21` [P-351, 7-(3-tert-butylbenzimidazol-5-yl)-2-(2-cyclopropyl-4-pyridyl)-5H-pyrrolo[2,3-b]pyrazine], the IC50 against FLT3-D835Y and on FLT3-ITD was 0.0001 to 1 µM in each case.

Consider `Fc1ccc(-n2cnc3ccc(-c4c[nH]c5ncc(-c6cccc(OC(F)(F)F)c6)cc45)cc32)cc1` [P-204, 1-(4-fluorophenyl)-6-[5-[3-(trifluoromethoxy)phenyl]-1H-pyrrolo[2,3-b]pyridin-3-yl]benzimidazole], for which the IC50 against FLT3-D835Y and on FLT3-ITD was 0.0001 to 1 µM in each case.

Turning to `N#Cc1cccc(-c2cnc3[nH]cc(-c4ccc5ncn(-c6ccc(F)cc6)c5c4)c3c2)c1` [P-201, 3-[3-[3-(4-fluorophenyl)benzimidazol-5-yl]-1H-pyrrolo[2,3-b]pyridin-5-yl]benzonitrile], the IC50 against FLT3-D835Y and at FLT3-ITD was 0.0001 to 1 µM throughout.

On to `CC(C)(C)n1cnc2ccc(-c3c[nH]c4ncc(-c5cnc(C6CC6)nc5)nc34)cc21` [P-342, 7-(3-tert-butylbenzimidazol-5-yl)-2-(2-cyclopropylpyrimidin-5-yl)-5H-pyrrolo[2,3-b]pyrazine], for which the IC50 against FLT3-D835Y and at FLT3-ITD was 0.0001 to 1 µM throughout.
